Source: article PMC3160846 (PLoS ONE, 2011)

Experiments:
ALK = target: T1, ALK (Homo sapiens, UniProt Q9UM73); assay: Kinase inhibition assay, ALK; type: biochemical
T1 construct: His-tagged ALK (residues V1058-P1620) containing kinase domain; His; made in house; host or cells: Sf9 insect cells
Experimental: ALK – The recombinant His-tagged ALK (residues V1058-P1620) containing kinase domain was expressed in Sf9 insect cells. The kinase assay was carried out in 96-well plates with the tested compound at 30°C for 120 min.
(§1) Composition of the reaction buffers used in different kinase inhibitory assays is described in Figure S3.
25 mM HEPES pH 7.4, 10 mM MgCl2, 4 mM MnCl2, 0.5 mM Na3VO4, 2 mM DTT, 0.02% Triton X100, 0.01% BSA, 1 μM ATP, 2 μM polyGlu4:Tyr peptide, 50~100 ng recombinant ALK.

CHK1 = target: T2, CHK1 (Homo sapiens, UniProt O14757); assay: Kinase inhibition assay, CHK1; type: biochemical
T2 construct: His-tagged CHK1 (residues M1-T476); His; made in house; host or cells: Sf9 insect cells
Experimental: CHK1/2 – The recombinant His-tagged CHK1 (residues M1-T476) or CHK2 (residues M1-L543) containing kinase domain were expressed in Sf9 insect cells. The kinase assay was carried out in 96-well plates with the tested compound at 30°C for 120 min.
as §1
25 mM HEPES pH 7.4, 10mM MgCl2, 4mM MnCl2, 0.5mM Na3VO4, 2 mM DTT, 0.02% Triton X100, 0.01% BSA, 1 mM ATP, 2 mM CHK peptide ([…]), 50~500 ng recombinant CHK1 or CHK2.

EGFR = target: T3, EGFR (Homo sapiens, UniProt P00533); assay: Kinase inhibition assay, EGFR; type: biochemical
T3 construct: GST-tagged EGFR (residues G696-G1022) containing kinase domain; GST; made in house; host or cells: Sf9 insect cells
Experimental: EGFR – The recombinant GST-tagged EGFR (residues G696-G1022) containing kinase domain was expressed in Sf9 insect cells. The kinase assay was carried out in 96-well plates with the tested compound at 37°C for 60 min.
as §1
25 mM Tris pH 7.4 (EGFR), 10 m M MgCl2, 4 mM MnCl2, 0.5 mM Na3VO4, 2 mM DTT, 0.02% Triton X100, 0.01% BSA, […], 2 mM polyGlu4:Tyr peptide, 80~500 ng recombinant EGFR.

FLT3 = target: T4, FLT3 (Homo sapiens, UniProt P36888); assay: Kinase-Glo inhibition assay, FLT3; type: biochemical
T4 construct: FLT3 kinase catalytic domain (residues Y567∼S993); made in house; host or cells: Sf9 insect cells
Experimental: FLT3 – GST-tagged FLT3-KDWT containing the FLT3 kinase catalytic domain (residues Y567∼S993) were expressed in Sf9 insect cells. The FLT3WT Kinase-Glo assays were carried out in 96-well plates at 30°C for 4 h with the tested compound.
as §1
75 ng GST-FLT3-KDWT proteins, 25 mM HEPES, pH 7.4, 4 mM MnCl2, 10 mM MgCl2, 2mM DTT, 0.02% Triton X-100, 0.1 mg/ml bovine serum albumin, 25 μM Her2 peptide substrate, 0.5 mM Na3VO4, and 1 μM ATP.

VEGFR2 = target: T5, VEGFR2 (Homo sapiens, UniProt P35968); assay: Kinase inhibition assay, VEGFR2; type: biochemical
T5 construct: VEGFR2 (residues V789-V1356) containing kinase domain; GST; made in house; host or cells: Sf9 insect cells
Experimental: VEGFR1/2 – The recombinant GST-tagged VEGFR1 (residues R781-I1338) or VEGFR2 (residues V789-V1356) containing kinase domain were expressed in Sf9 insect cells. The kinase assay was carried out in 96-well plates with the tested compound at 30°C for 120 min.
as §1
25 mM HEPES pH 7.4, 10 mM MgCl2, 4mM MnCl2, 0.5mM Na3VO4, 2 mM DTT, 0.02% Triton X100, 0.01% BSA, 1 mM ATP, 2 mM polyGlu4:Tyr peptide, 50~100 ng recombinant VEGFR1 or VEGFR2.

A549 cells = assay: Clonogenic assay, A549; type: cell-based, Human; settings: Homo sapiens; A549, lung, p53 wild-type, MDR1 negative; read-out: IC50, anti-proliferative activity
Experimental: (§2) Human lung adenocarcinoma A549 cells and NTUB1 bladder cancer cells were maintained in RPMI supplied with 10% fetal bovine serum. […] KB-derived MRP1-expressing cell line, KB-7D, was maintained in growth medium supplemented with 7 µM VP-16.
(§3) Two hundred cells in logarithmic growth phase were seeded in a 6-well plate. The cells were exposed to various concentrations of the test drugs for a three-generation period. At the end of the incubation period, cells were fixed and stained with 50% ethanol containing 0.5% methylene blue for 30 min. The plates were washed five times with water and allowed to air-dry. Colonies were countered manually. […] Each value represents the average of at least three independent experiments run in triplicates.

NTUB1 cells = assay: Clonogenic assay, NTUB1; type: cell-based, Human; settings: Homo sapiens; NTUB1, bladder, MDR1 negative (parental); read-out: IC50, anti-proliferative activity
Experimental: as §2, §3

KB-7D cells = assay: Clonogenic assay, KB-7D; type: cell-based; settings: Homo sapiens, KB7D, VP-16 resistant, MRP1 ↑, read-out: IC50, anti-proliferative activity
Experimental: as §2, with “serum. KB-derived MDR1-expressing cell lines (i.e. KB-VIN10 and KB-S15) and NTUB1-dervided MDR1-expressing cell line (i.e. NTU0.017) were maintained in growth medium supplemented with 10 nM vincristine, 15 nM and 17 nM paclitaxel respectively.” for “serum.”
Two hundred cells in logarithmic growth phase were seeded in a 6-well plate. The cells were exposed to various concentrations of the test drugs for a three-generation period. At the end of the incubation period, cells were fixed and stained with 50% ethanol containing 0.5% methylene blue for 30 min. The plates were washed five times with water and allowed to air-dry. Colonies were countered manually. The IC50 value resulting from 50% inhibition of cell growth was calculated graphically as a comparison with the growth of the control group. Each value represents the average of at least three independent experiments run in triplicates.

KB cells = assay: Autophagy (LC3 conversion, Western blot), KB; type: cell-based, Human; settings: 48 h or 72 h, full serum
Experimental: KB cells were treated with either DMSO (negative control) or BPR1K653 (48 h or 72 h) under full serum conditions. Cells cultured drug-free under reduced serum conditions were used as a positive control. Expression of various proteins was determined by Western blotting. The level of conversion of LC3-I to LC3-II provides an indicator of autophagic activity. (TIF) Click here for additional data file.

T1 sequence (Q9UM73 1058-1620): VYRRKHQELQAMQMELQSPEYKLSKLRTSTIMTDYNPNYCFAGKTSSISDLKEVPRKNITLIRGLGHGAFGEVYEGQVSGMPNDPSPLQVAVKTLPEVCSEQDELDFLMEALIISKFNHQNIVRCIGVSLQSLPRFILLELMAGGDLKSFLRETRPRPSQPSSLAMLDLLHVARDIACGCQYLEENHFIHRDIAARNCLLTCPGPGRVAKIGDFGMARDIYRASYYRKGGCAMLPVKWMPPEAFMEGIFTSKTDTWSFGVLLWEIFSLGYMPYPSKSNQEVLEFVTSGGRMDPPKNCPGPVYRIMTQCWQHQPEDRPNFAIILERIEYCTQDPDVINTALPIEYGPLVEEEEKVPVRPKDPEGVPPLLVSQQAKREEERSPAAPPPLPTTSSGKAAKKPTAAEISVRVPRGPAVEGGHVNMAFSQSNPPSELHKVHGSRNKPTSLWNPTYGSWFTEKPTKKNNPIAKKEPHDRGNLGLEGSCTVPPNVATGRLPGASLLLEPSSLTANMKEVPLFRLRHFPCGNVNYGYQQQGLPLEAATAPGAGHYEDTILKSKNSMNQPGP
T3 sequence (P00533 696-1022): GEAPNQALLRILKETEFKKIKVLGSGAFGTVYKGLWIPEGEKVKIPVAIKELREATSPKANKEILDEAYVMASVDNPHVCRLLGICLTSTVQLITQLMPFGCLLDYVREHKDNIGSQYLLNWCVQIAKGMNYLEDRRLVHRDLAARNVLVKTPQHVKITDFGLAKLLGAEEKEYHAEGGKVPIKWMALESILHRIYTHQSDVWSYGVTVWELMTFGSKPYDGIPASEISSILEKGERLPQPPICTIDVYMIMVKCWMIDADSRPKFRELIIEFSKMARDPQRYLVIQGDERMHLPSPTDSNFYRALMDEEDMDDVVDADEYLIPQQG
T5 sequence (P35968 789-1356): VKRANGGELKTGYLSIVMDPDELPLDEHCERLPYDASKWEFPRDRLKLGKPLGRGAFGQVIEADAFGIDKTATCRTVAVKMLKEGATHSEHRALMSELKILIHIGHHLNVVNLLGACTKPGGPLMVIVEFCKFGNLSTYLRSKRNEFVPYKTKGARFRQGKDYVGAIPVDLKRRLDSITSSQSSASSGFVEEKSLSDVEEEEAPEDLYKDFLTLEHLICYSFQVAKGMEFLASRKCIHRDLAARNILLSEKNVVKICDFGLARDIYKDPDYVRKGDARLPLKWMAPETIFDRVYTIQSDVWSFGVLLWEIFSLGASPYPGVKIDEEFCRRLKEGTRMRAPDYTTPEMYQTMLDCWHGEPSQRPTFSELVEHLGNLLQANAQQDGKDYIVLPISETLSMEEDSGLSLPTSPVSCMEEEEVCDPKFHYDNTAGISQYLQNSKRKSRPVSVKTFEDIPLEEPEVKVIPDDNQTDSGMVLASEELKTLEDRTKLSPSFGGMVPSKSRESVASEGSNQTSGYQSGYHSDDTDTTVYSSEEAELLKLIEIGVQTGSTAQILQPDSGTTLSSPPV
T4 sequence (P36888 567-993): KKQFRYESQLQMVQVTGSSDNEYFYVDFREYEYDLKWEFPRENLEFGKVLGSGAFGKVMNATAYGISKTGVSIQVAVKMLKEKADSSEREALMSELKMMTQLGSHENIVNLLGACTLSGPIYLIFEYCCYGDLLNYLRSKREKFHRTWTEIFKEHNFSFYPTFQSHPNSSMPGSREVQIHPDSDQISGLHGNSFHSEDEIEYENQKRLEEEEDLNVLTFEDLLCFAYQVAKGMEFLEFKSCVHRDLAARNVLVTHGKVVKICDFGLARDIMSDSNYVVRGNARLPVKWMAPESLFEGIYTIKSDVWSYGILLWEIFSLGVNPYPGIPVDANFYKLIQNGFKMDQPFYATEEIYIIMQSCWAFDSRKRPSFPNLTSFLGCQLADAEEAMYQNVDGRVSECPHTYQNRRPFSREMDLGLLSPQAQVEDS
T2 sequence (O14757 whole entry, the tested form may be a part): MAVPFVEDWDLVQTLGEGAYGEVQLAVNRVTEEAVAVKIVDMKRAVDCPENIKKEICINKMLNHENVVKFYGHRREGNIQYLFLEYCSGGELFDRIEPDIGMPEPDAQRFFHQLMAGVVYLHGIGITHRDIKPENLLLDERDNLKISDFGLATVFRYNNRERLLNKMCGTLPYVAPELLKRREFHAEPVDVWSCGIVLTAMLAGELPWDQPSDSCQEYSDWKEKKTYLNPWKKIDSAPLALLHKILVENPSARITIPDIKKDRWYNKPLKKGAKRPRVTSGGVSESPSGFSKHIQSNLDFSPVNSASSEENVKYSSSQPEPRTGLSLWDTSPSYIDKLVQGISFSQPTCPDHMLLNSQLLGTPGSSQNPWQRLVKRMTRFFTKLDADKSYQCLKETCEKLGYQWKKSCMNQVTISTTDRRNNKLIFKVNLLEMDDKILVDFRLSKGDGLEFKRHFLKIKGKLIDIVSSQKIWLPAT

CN(C)Cc1ccccc1NC(=O)Nc1ccc(CCNc2ncnc3oc(-c4ccccc4)c(Cl)c23)cc1 [BPR1K653]
IC50 (ALK): > 10 µM | IC50 (CHK1): > 10 µM | IC50 (EGFR): > 10 µM | IC50 (FLT3): > 10 µM | IC50 (VEGFR2): > 10 µM | IC50 (A549 cells): 0.009 µM | IC50 (NTUB1 cells): 0.008 ± 0.004 µM | IC50 (KB-7D cells): 0.019 µM | induction of autophagy (KB cells): not autophagy
